Measured values as given in paper PMC6270011, “Design and Synthesis of Arylthiophene-2-Carbaldehydes via Suzuki-Miyaura Reactions and Their Biological Evaluation” (Molecules, 2013).

Target: urease enzyme (Canavalia ensiformis, UniProt P07374)
Details: for %age Activity at 25 μg (urease inhibition): 25 µg/mL; for %age Activity at 50 μg (urease inhibition): 50 µg/mL

Sequence of urease enzyme (P07374 whole entry, looked up): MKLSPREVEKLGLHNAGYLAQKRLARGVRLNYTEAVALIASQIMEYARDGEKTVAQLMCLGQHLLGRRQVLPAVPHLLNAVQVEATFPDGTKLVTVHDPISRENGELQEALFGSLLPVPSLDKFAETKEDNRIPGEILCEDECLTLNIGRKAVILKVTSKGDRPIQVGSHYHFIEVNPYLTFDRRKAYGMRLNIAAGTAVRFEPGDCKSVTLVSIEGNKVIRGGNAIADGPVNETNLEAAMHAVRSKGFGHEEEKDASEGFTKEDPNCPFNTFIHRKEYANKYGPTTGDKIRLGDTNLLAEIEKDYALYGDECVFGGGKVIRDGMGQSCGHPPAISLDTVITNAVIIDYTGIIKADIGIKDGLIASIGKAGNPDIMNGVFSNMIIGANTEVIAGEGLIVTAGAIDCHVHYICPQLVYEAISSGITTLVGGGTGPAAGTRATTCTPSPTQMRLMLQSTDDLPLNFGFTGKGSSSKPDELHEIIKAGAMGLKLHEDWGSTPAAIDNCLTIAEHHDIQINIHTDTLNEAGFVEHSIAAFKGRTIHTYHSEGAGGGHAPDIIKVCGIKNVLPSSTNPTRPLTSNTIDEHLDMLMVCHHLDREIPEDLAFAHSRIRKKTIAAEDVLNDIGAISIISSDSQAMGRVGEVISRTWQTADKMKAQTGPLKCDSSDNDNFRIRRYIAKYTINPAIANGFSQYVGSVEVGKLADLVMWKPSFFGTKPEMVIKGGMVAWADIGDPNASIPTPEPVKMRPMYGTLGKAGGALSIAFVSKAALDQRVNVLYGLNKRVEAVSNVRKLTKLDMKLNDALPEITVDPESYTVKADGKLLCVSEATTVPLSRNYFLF

| Compound | %age Activity at 25 μg (urease inhibition) [%] | %age Activity at 50 μg (urease inhibition) [%] |
| --- | --- | --- |
| Cc1ccc(-c2csc(C=O)c2)cc1 [2e, 4-p-Tolylthiophene-2-carbaldehyde] | 44.5 ± 0.057 | 76.5 ± 0.05 |
| Cc1ccc(-c2csc(C=O)c2)s1 [2j, 5-Methyl-2,3-bisthiophene-5-carbaldehyde] | 2 ± 0.219 | 9.7 ± 0.2 |
| O=Cc1cc(-c2ccc(Cl)c(Cl)c2)cs1 [2h, 4-(3,4-Dichlorophenyl)thiophene-2-carbaldehyde] | 44 ± 0.084 | 86.4 ± 0.44 |
| O=Cc1cc(-c2cc(C(F)(F)F)cc(C(F)(F)F)c2)cs1 [2b, 4-(3,5-Bis(trifloromethyl)phenyl)thiophene-2-carbaldehyde] | 35 ± 0.014 | 87.0 ± 0.084 |
| N#Cc1cc(-c2csc(C=O)c2)cc(C(F)(F)F)c1 [2d, 3-(5-Formylthiophene-3-yl)-5-(trifloromethyl)benzonitrile] | 37 ± 0.0042 | 88.7 ± 0.005 |
| Cc1cc(C)cc(-c2csc(C=O)c2)c1 [2g, 4-(3,5-Dimethylphenyl)thiophene-2-carbaldehyde] | 42.5 ± 0.0070 | 87.2 ± 0.5 |
| COc1ccc(-c2csc(C=O)c2)cc1 [2f, 4-(4-Methoxyphenyl)thiophene-2-carbaldehyde] | 42.3 ± 0.0007 | 80.2 ± 0.0017 |
| O=Cc1cc(-c2ccc(Cl)s2)cs1 [2c] | 44 ± 0.0042 | 87.8 ± 0.006 |
| O=Cc1cc(-c2ccc(F)c(Cl)c2)cs1 [2i, 4-(3-Chloro-4-fluorophenyl)thiophene-2-carbaldehyde] | 46.2 ± 0.0042 | 90.6 ± 0.05 |
| O=Cc1cc(-c2ccccc2)cs1 [2a, 4-Phenylthiophene-2-carbaldehyde] | 45 ± 0.0162 | 86.9 ± 0.012 |
